What was measured:
[1] = target: SpCas9 (Streptococcus pyogenes serotype M1, UniProt Q99ZW2); assay: eGFP disruption assay, SpCas9, U2OS.eGFP.PEST cells; assay type: cell-based; settings: for Normalized Z rep1 / Z score Rep1: replicate 1; for SpCas9 eGFP disruption Rep1: replicate 1, raw readout; for Normalized Z rep2 / Z socre Rep2: replicate 2; for SpCas9 eGFP disruption Rep2: replicate 2, raw readout
In short: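 Rescue of eGFP signal lost through Cas9-induced NHEJ indels serves as the inhibition read-out, after 24 h compound exposure (20 μM for hits, variable for dose-response). Editing was delivered by nucleofection into U2OS.eGFP.PEST cells as SpCas9/gRNA plasmids (300/30 ng) or RNP (10/12 pmol). Toxic and autofluorescent compounds were excluded.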

[2] = target: SpCas9:gRNA complex and DNA (Streptococcus pyogenes serotype M1, UniProt Q99ZW2); assay: Fluorescence polarization SpCas9:PAM DNA interaction assay; assay type: binding
Sequence of SpCas9:gRNA complex and DNA (Q99ZW2 whole entry, one chain of several): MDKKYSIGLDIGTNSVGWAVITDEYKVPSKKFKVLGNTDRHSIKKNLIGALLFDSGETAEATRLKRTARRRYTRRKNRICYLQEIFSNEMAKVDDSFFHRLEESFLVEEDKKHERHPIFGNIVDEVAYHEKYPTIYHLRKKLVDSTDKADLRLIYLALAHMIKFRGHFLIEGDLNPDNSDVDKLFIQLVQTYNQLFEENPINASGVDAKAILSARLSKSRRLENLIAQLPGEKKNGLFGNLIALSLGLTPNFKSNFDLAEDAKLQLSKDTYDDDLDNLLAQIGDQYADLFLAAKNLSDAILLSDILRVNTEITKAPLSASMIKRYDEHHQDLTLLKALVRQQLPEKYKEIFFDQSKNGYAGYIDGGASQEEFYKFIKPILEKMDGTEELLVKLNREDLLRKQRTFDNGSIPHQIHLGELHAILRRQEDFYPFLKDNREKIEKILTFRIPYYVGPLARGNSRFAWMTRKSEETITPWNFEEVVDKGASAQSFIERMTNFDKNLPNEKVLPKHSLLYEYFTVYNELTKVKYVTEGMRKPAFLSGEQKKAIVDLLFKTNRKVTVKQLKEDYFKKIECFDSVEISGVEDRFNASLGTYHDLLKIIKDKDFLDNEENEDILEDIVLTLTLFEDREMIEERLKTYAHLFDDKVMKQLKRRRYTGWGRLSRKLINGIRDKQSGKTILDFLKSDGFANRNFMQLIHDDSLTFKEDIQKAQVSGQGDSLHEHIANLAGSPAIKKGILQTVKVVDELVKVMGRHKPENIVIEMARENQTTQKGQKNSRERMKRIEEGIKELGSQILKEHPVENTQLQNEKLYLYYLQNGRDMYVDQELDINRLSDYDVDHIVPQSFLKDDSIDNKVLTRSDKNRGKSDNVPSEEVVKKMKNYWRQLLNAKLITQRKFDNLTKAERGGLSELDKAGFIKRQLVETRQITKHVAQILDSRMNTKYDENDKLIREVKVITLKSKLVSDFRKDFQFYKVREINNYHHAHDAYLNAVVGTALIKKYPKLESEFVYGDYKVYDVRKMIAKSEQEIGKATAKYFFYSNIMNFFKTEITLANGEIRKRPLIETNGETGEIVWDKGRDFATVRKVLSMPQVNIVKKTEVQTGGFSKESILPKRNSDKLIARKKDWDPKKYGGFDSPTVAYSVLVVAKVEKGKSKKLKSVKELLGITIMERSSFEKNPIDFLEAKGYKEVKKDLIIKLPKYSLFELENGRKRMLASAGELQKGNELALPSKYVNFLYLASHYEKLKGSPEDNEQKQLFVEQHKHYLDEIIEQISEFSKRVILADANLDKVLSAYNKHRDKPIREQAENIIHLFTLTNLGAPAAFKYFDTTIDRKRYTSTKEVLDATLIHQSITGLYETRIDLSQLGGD
Source text: The fluorescence Polarization-based Assay may monitor the change in the fluorescence polarization of the fluorophore-labelled PAM-rich target DNA (e.g., a 12PAM-DNA) upon binding to [Cas9:guideRNA] complex.
Fluorescence polarization is a useful technique to monitor the interaction between two molecules, including for example, Cas9-gRNA (ribonucleoprotein) complex and target DNA (e.g., 12PAM).
Fluorescence polarization may be used to measure the binding constants and kinetics of reactions that cause a change in the rotational time of the molecules. The technique is based on the change in the tumbling rate or mass after complexation. […] The degree of binding is calculated by using the difference in anisotropy of the partially bound, free and fully bound (large excess of protein) states measured by titrating the two binding partners. […]
Development of cumulative activity assay (CAA) for SpCas9. Applicants previously reported an assay that uses fluorescence polarization (FP) to monitor the binding between a fluorophore-labeled poly-PAM DNA oligonucleotide and SpCas9 charged with a non-targeting gRNA.^17 This assay permitted screening for small molecules that interfered with the early steps of the SpCas9 catalytic mechanism, namely, binding of SpCas9 and the relatively low-affinity NGG PAM DNA sequence. […]

[3] = Cas9 = lower control, Ctrl = upper control
[4] = normalized, lower control about 0, upper control about 1

Sequence of SpCas9 (Q99ZW2 whole entry): as the sequence (Q99ZW2 whole entry, one chain of several) above

Structure (SMILES) | EC50 ([1]; EC50 in eGFP disruption assay, U2OS.eGFP.PEST, SpCas9 plasmid and sgRNA plasmid, 0.3 uM to 20 uM, 24 h (FIG. 44A/C)) | EC50 ([1]; EC50 in the eGFP disruption assay, from three independent experiments) | Potency relative to BRD0539 ([1]; more potent than BRD0539) | Inhibition of binding between SpCas9:gRNA complex and DNA [2] | Normalized Z rep1 [1] | Z score Rep1 [1] | SpCas9 eGFP disruption Rep1 [1] | Normalized Z rep2 [1] | Z socre Rep2 [1] | SpCas9 eGFP disruption Rep2 [1] | SpCas9 eGFP disruption Rep1 [1, 3] | Normalized Z rep1 [1, 4] | SpCas9 eGFP disruption Rep2 [1, 3] | Normalized Z rep2 [1, 4]
O=C(CCS(=O)(=O)c1ccc(Cl)cc1)Nc1nc(-c2ccncc2)cs1 [BRD7586] | 5.55 µM | 6.2 ± 1.2 µM | ~2 fold | does not inhibit the binding | – | – | – | – | – | – | – | – | – | –
c1ccc(Cc2nn3c(-c4cccnc4)nnc3s2)cc1 [Compound D727-0066] | – | – | – | – | −0.11 | −0.78 | 64.43 | −0.15 | −1.42 | 58.807 | – | – | – | –
Cc1nc2ccccc2n1Cc1nnc2n1N=C(N)CS2 [Compound D727-0339] | – | – | – | – | −0.25 | −1.83 | 60.982 | −0.15 | −1.41 | 58.84 | – | – | – | –
Cc1ccccc1OCc1nn2c(C(C)C)nnc2s1 [Compound D727-0350] | – | – | – | – | −0.47 | −3.41 | 55.746 | −0.04 | −0.36 | 61.985 | – | – | – | –
Cc1ccccc1OCc1nn2c(C(C)(C)C)nnc2s1 [Compound D727-0351] | – | – | – | – | – | 0.29 | – | – | 1.32 | – | 67.967 | 0.04 | 67.06 | 0.14
Brc1ccc(OCc2nn3c(-c4ccccn4)nnc3s2)cc1 [Compound D727-0522] | – | – | – | – | −0.12 | −0.85 | 64.203 | 0.08 | 0.79 | 65.458 | – | – | – | –
Fc1ccc(OCc2nn3c(-c4ccccn4)nnc3s2)cc1 [Compound D727-0525] | – | – | – | – | −0.49 | −3.56 | 55.263 | −0.39 | −3.59 | 52.257 | – | – | – | –
NC(=O)c1c(NC(=O)COCc2cc(-c3ccc4c(c3)OCO4)on2)sc2c1CCCC2 [Compound E613-0091] | – | – | – | – | −0.19 | −1.37 | 62.484 | −0.32 | −2.94 | 54.219 | – | – | – | –
NS(=O)(=O)c1ccc(CCNC(=O)C2=Cc3sc4c(c3CS2)CCCC4)cc1 [Compound E722-2588] | – | – | – | – | −0.16 | −1.14 | 63.246 | 0.13 | 1.22 | 66.773 | – | – | – | –
NC(=O)c1sc(=S)n2c1[nH]c(=O)c1ccc(Cl)cc12 [Compound F083-0067] | – | – | – | – | −0.09 | −0.66 | 64.842 | −0.23 | −2.14 | 56.626 | – | – | – | –
CCCN1CCN(c2ccc(C(=O)O)cc2NC(=O)c2ccccc2Cl)CC1 [Compound F086-0004] | – | – | – | – | −0.17 | −1.20 | 63.051 | −0.29 | −2.70 | 54.937 | – | – | – | –
CC(C)NC(=O)CN1CCN(c2ccc(C(=O)O)cc2NC(=O)c2ccccc2Cl)CC1 [Compound F086-0028] | – | – | – | – | −0.55 | −3.98 | 53.848 | −0.21 | −1.95 | 57.208 | – | – | – | –
COCCCNC(=O)CN1CCN(c2ccc(C(=O)O)cc2NC(=O)c2ccccc2Cl)CC1 [Compound F086-0033] | – | – | – | – | −0.26 | −1.88 | 60.787 | −0.24 | −2.23 | 56.359 | – | – | – | –
O=C(O)c1ccc(N2CCN(c3ccccn3)CC2)c(NC(=O)c2ccc(Br)cc2)c1 [Compound F086-0619] | – | – | – | – | −0.11 | −0.82 | 64.289 | −0.20 | −1.83 | 57.556 | – | – | – | –
Nc1c(C(=O)N2CCCC2)sc(=S)n1Cc1ccccc1 [Compound F128-0041] | – | – | – | – | −0.05 | −0.34 | 65.885 | −0.15 | −1.37 | 58.95 | – | – | – | –
Nc1c(C(=O)N2CCCCC2)sc(=S)n1Cc1ccccc1 [Compound F128-0042] | – | – | – | – | −0.22 | −1.57 | 61.817 | −0.36 | −3.35 | 52.985 | – | – | – | –
Nc1c(C(=O)NCC2CCCO2)sc(=S)n1-c1ccc(Cl)cc1 (stereo not shown) [Compound F128-0076] | – | – | – | – | −0.08 | −0.57 | 65.12 | −0.12 | −1.11 | 59.748 | – | – | – | –
CS(=O)(=O)Nc1cnc(N2CCC(C(N)=O)(N3CCCCC3)CC2)c(C(=O)O)c1 [Compound F293-0183] | – | – | – | – | −0.19 | −1.40 | 62.398 | −0.33 | −3.08 | 53.8 | – | – | – | –
O=C(O)c1cc(NS(=O)(=O)c2cc(F)ccc2F)cnc1N1CCC(N2CCCCC2)CC1 [Compound F293-0616] | – | – | – | – | −0.36 | −2.62 | 58.357 | −0.03 | −0.30 | 62.171 | – | – | – | –
CS(=O)(=O)Nc1cnc(N2CCC(CCN3CCOCC3)CC2)c(C(=O)O)c1 [Compound F293-0898] | – | – | – | – | −0.44 | −3.21 | 56.403 | −0.11 | −1.00 | 60.078 | – | – | – | –
CN(C)S(=O)(=O)Nc1cnc(N2CCC(CCN3CCCCC3)CC2)c(C(=O)O)c1 [Compound F293-0962] | – | – | – | – | −0.18 | −1.30 | 62.732 | −0.33 | −3.10 | 53.726 | – | – | – | –
CCN(Cc1ccccc1)c1ccc(NS(=O)(=O)c2ccc(OC)cc2)cc1C(=O)O [Compound F294-0003] | – | – | – | – | −0.48 | −3.46 | 55.595 | −0.10 | −0.96 | 60.198 | – | – | – | –
CN(C)S(=O)(=O)Nc1ccc(N2CCC(C(N)=O)(N3CCCCC3)CC2)c(C(=O)O)c1 [Compound F294-0183] | – | – | – | – | −0.33 | −2.37 | 59.182 | −0.30 | −2.83 | 54.549 | – | – | – | –
CN(C)S(=O)(=O)Nc1ccc(N2CCC(CCN3CCOCC3)CC2)c(C(=O)O)c1 [Compound F294-0900] | – | – | – | – | −0.19 | −1.40 | 62.393 | −0.24 | −2.23 | 56.357 | – | – | – | –
CN(C)S(=O)(=O)Nc1ccc(N2CCCC(CN3CCCC3)C2)c(C(=O)O)c1 (stereo not shown) [Compound F294-0983] | – | – | – | – | −0.40 | −2.90 | 57.443 | −0.35 | −3.23 | 53.339 | – | – | – | –

— patent US20240115557A1, “INHIBITORS OF RNA-GUIDED NUCLEASES AND USES THEREOF” (The Brigham and Women's Hospital, Inc., priority 2022, published 2024)
